Assay results reported in US20250228837A1, “(2S)-1-[4-(3,4-DICHLOROPHENYL)PIPERIDIN-1-YL]-3-[2-(5-METHYL-1,3,4-OXADIAZOL-2-YL)BENZO[B]FURAN-4-YLOXY] PROPAN-2-OL OR ITS METABOLITE FOR TREATING ANXIETY DISORDERS” (Minerva Neurosciences, Inc., priority 2016, published 2025).
Entries after “also recorded” stand apart in the source; their conditions may differ. Where a name gives a salt, the structure may show the parent alone. Read-outs that look alike come from different tables or passages of the source.

Key:
5-HT1A receptor [1] = biological target: T1, 5-HT1A receptor (Homo sapiens, UniProt P08908); conditions: from U.S. Pat. No. 6,720,320 / Minerva Form 10K, cited from earlier work
T1 sequence (P08908 1-422): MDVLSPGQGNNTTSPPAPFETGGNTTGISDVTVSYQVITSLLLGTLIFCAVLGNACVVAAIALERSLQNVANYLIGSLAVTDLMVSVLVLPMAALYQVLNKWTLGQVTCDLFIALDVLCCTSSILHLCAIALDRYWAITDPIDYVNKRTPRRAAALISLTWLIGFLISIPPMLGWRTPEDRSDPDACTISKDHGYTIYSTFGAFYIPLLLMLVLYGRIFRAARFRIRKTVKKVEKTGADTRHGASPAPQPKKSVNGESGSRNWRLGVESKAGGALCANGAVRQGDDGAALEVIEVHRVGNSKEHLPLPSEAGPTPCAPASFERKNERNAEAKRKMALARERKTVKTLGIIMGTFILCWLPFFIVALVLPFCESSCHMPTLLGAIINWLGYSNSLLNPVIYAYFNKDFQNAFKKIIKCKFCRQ

5-HT1A receptor [2] = biological target: T1, 5-HT1A receptor; conditions: in vitro; disclosed in U.S. Pat. No. 6,720,320; cited from earlier work
serotonin reuptake = serotonin reuptake (Homo sapiens, UniProt P31645); conditions: from U.S. Pat. No. 6,720,320 / Minerva Form 10K, cited from earlier work
Sequence of serotonin reuptake (P31645 whole entry): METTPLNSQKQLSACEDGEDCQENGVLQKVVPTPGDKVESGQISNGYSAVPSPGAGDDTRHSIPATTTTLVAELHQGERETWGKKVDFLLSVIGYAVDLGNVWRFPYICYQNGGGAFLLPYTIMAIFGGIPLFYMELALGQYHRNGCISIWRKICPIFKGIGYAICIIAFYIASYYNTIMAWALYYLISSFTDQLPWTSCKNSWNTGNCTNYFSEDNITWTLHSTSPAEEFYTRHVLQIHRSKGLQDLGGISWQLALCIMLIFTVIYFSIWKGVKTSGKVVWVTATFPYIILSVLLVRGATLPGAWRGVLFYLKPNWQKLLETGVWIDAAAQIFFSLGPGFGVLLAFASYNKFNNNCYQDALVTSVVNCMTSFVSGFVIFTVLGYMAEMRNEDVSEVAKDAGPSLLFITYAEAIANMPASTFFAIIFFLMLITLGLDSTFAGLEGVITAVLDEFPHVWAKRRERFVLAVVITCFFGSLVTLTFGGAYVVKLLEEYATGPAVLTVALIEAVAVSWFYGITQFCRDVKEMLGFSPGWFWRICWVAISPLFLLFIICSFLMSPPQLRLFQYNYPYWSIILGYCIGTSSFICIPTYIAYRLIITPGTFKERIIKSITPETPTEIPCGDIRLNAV

α1A-adrenergic receptor = biological target: T2, α1A-adrenergic receptor (Homo sapiens, UniProt P35348); conditions: Minerva Form 10K, 14 Mar. 2016; cited from earlier work
T2 sequence (P35348 1-466): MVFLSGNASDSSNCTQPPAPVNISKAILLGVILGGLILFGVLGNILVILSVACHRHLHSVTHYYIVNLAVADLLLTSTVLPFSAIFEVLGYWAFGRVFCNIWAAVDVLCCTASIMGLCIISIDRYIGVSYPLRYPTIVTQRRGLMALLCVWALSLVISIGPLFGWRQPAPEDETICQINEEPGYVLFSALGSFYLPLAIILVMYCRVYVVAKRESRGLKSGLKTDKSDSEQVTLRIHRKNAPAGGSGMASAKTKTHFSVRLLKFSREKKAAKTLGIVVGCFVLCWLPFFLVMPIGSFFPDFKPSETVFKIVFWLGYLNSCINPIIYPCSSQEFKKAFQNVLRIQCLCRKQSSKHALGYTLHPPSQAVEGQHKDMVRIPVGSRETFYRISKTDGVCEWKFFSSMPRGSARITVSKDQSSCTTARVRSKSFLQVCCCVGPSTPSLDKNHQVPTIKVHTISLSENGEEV

α1B-adrenergic receptor = biological target: T3, α1B-adrenergic receptor (Homo sapiens, UniProt P35368); conditions: Minerva Form 10K, 14 Mar. 2016; cited from earlier work
T3 sequence (P35368 1-520): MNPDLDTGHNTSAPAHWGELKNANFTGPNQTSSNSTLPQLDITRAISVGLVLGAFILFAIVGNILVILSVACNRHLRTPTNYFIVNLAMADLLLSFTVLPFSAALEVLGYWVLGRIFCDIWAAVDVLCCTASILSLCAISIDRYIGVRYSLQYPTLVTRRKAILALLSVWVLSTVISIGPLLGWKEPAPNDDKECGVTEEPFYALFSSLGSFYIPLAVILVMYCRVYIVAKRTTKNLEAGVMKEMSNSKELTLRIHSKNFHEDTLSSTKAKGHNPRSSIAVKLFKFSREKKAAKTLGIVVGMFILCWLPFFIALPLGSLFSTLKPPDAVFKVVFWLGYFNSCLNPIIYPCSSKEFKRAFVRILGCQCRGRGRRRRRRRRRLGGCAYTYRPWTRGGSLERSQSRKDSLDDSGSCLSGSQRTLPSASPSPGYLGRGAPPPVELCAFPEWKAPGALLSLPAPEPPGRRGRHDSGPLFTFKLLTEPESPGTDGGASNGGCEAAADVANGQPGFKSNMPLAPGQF

dopamine reuptake = dopamine reuptake (Homo sapiens, UniProt Q01959); conditions: Minerva Form 10K, 14 Mar. 2016; cited from earlier work
Sequence of dopamine reuptake (Q01959 whole entry): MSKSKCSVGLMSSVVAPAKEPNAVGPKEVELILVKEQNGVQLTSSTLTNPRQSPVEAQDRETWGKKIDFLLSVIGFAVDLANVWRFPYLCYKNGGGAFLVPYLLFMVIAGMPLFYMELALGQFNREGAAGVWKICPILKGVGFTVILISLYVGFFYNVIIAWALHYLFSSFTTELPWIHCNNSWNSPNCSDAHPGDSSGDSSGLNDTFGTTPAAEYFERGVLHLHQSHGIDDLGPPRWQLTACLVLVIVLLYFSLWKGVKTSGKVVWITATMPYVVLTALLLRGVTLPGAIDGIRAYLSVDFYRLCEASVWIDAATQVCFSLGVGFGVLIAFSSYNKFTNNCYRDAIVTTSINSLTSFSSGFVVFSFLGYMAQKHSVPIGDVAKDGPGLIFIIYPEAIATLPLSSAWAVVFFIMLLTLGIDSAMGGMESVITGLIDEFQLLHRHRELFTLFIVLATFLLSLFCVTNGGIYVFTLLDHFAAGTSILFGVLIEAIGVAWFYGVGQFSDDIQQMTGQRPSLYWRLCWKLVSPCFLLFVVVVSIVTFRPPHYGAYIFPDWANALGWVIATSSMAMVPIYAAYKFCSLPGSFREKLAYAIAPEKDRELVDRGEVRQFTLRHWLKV

5-HT2A receptors = 5-HT2A receptors (Homo sapiens, UniProt P28223); conditions: Minerva Form 10K, 14 Mar. 2016; cited from earlier work
Sequence of 5-HT2A receptors (P28223 whole entry): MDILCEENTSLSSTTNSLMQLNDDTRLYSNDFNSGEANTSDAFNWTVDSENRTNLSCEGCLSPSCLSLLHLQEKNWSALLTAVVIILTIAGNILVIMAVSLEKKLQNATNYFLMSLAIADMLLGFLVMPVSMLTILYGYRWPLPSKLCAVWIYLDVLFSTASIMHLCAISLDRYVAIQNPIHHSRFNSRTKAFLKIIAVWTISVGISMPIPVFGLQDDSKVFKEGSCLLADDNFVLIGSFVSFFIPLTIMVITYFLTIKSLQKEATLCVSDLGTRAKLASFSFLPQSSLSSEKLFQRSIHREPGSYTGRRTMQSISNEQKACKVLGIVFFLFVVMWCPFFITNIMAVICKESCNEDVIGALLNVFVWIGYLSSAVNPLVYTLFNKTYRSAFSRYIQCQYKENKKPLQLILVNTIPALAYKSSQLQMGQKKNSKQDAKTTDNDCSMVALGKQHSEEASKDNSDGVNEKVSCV

adult subjects with MDD = assay: Phase 2a randomized, double-blind, placebo- and active-controlled study; anxiety by HAM-A over 6 weeks; type: in vivo, human; conditions: for speed of onset of the reduction in total HAM-A score: 0.5 mg dose compared with the 2.5 mg dose and other arms, Week 1 vs. Week 2; for reduction in severity of anxiety symptoms compared to placebo (change from baseline in total HAM-A score): MDD patients, ITT, once daily oral 0.5 mg or 2.5 mg, 6 weeks of treatment
Description: In an embodiment, the effect of the treatment is measured using the Hamilton Anxiety Scale (HAM-A). The subject is asked to rate the gravity of each item using a 5-level scale—from 0 to 4, where 0 being not present and 4 being severe. The results are then collated and tabulated to determine the severity of anxiety: a HAM-A score of <17 is mild anxiety, HAM-A score of 18-24 is mild to moderate anxiety, and HAM-A score of 25-30 is moderate to severe anxiety.
A phase 2a, multicenter, multinational, randomized, double-blind, placebo- and active-controlled parallel-group study was conducted to investigate the efficacy and safety of MIN-117 in adult subjects with MDD. One of the exploratory objectives of the study was to assess effects of MIN-117 compared to placebo on anxiety as measured by change from baseline in the Hamilton Anxiety Rating Scale (HAM-A) over 6 weeks of treatment.
The study consisted of a 4-week pre-treatment phase during which subjects were washed out from antidepressant medications or other psychotropics, followed by a 6-week treatment phase, and then an end of study (EOS) follow-up visit at approximately 2-weeks after the end of the treatment phase. MIN-117 capsules of 0.5 mg and 2.5 mg strength were used in the study. The capsules were size 4 made of white hard gelatin containing the drug substance, lactose, cornstarch, low substituted hydroxypropylcelullose and hydroxypropylcelullose, and purified water.
Eighty-four eligible subjects (met the DSM-5 diagnostic criteria for moderate to severe MDD, without psychotic features) were randomized in a 1:1:1:1 ratio, to receive once daily oral doses of placebo, MIN-117 at 0.5 mg, MIN-117 at 2.5 mg, or paroxetine at 20 mg as an active comparator for 6 weeks. Paroxetine is an antidepressant of the SSRI class and is used to treat MDD, OCD, PTSD, social anxiety disorder, panic disorder, GAD, premenstrual dysphoric disorder and menopausal hot flashes. The HAM-A scale was used to measure the severity of each subject's anxiety at screening, baseline, and weeks 1, 2, 4, 6 (or early withdrawal) and EOS.
Subjects had to meet all of the following inclusion criteria to be eligible for participation in this study: • 1. Subjects must be able to read and understand the consent forms, complete study-related procedures, and communicate with the study staff. • 2. Subjects must have provided written consent to participate in the study and understand that they are free to withdraw from the study at any time. • 3. Male or female subjects must be 18 to 65 years of age, inclusive, at Screening (Visit 1). • 4. Subjects have a body mass index (BMI) of ≥18 to ≤35 kg/m^2 [BMI=weight (kg)/height (m^2)] at Screening (Visit 1) • 5. Subjects must meet Diagnostic and Statistical Manual of Mental Disorders—Fifth Edition (DSM-5) criteria for diagnosis of moderate or severe depression without psychotic features (ICD-9 codes 296.32 & 296.33; ICD-10 codes F33.1 & F33.2, respectively) at Screening based on clinical assessment and on the MINI, v7.0. • 6. Subjects have a history of at least one previous episode of depression prior to the current episode. • 7. Current major depressive episode of at least 8 weeks in duration. • 8. Subjects must have a score of ≥30 on the investigator-rated MADRS at Screening (Visit 1) and Baseline (Visit 2a). • 9. Subjects must have a score of ≥4 on the investigator-rated CGI-S at Screening (Visit 1) and Baseline (Visit 2a). • 10. Subjects must be in good general health prior to study participation with no clinically relevant abnormalities as assessed by the investigator and determined by medical history, physical examination, blood chemistry, hematology, urinalysis, and electrocardiogram (ECG). • 11. […] Male subjects who are willing to use condom for the duration of the study and until 90 days after the last dose of the study, even if they have had vasectomy, and must inform their partners about taking an investigational medication. […]

SMILES | activity at the 5-HT1A receptor (5-HT1A receptor [1]) | affinity for the 5-HT1A receptor (5-HT1A receptor [2]) | activity on serotonin (5-HT) reuptake (serotonin reuptake) | activity at the 5-HT1A receptor (5-HT1A receptor [1]; monohydrochloride) | affinity for the α1A-adrenergic receptor (α1A-adrenergic receptor) | affinity for the α1B-adrenergic receptor (α1B-adrenergic receptor) | activity on dopamine reuptake (dopamine reuptake) | activity at the 5-HT2A receptor (5-HT2A receptors) | speed of onset of the reduction in total HAM-A score (adult subjects with MDD; monohydrochloride) | time after starting therapy to a beneficial result over placebo (adult subjects with MDD; 0.5 mg total daily dose) [weeks] | reduction in severity of anxiety symptoms compared to placebo (change from baseline in total HAM-A score) (adult subjects with MDD; monohydrochloride) | tolerability (adult subjects with MDD; both doses (0.5 mg and 2.5 mg once daily, 6 weeks)) | ability of both doses to reduce severity of symptoms, 0.5 mg vs 2.5 mg (adult subjects with MDD; by Week 6) | activity on serotonin (5-HT) reuptake (serotonin reuptake; monohydrochloride) | speed of onset of the reduction in total HAM-A score (adult subjects with MDD) | reduction in severity of anxiety symptoms compared to placebo (change from baseline in total HAM-A score) (adult subjects with MDD)
OCc1nnc(-c2cc3c(OC[C@@H](O)CN4CCC(c5ccc(Cl)c(Cl)c5)CC4)cccc3o2)o1 [Compound II, (2S)-1-[4-(3,4-dichlorophenyl)piperidin-1-yl]-3-[2-(5-hydroxymethyl-1,3,4-oxadiazol-2-yl)benzo[b]furan-4-yloxy]propan-2-ol] | antagonistic activity | selective affinity | 5-HT reuptake inhibitory activity | – | – | – | – | – | – | – | – | – | – | – | – | –
Cc1nnc(-c2cc3c(OC[C@@H](O)CN4CCC(c5ccc(Cl)c(Cl)c5)CC4)cccc3o2)o1 [MIN-117, (2S)-1-[4-(3,4-dichlorophenyl)piperidin-1-yl]-3-[2-(5-methyl-1,3,4-oxadiazol-2-yl)benzo[b]furan-4-yloxy]propan-2-ol monohydrochloride] | – | – | – | antagonist | having affinity | having affinity | antagonist | antagonist | fastest onset | 2 | reduces anxiety symptoms; also recorded: capable of reducing the severity of one or more anxiety symptoms | well tolerated | comparable | antagonist | – | –
Cc1nnc(-c2cc3c(OC[C@@H](O)CN4CCC(c5ccc(Cl)c(Cl)c5)CC4)cccc3o2)o1 [Compound I, (2S)-1-[4-(3,4-dichlorophenyl)piperidin-1-yl]-3-[2-(5-methyl-1,3,4-oxadiazol-2-yl)benzo[b]furan-4-yloxy]propan-2-ol] | antagonistic activity | selective affinity | 5-HT reuptake inhibitory activity | – | – | – | – | – | – | – | – | – | – | – | more rapid reduction | reduced anxiety symptoms compared to placebo; also recorded: capable of reducing the severity of one or more anxiety symptoms
